Target: HiBiT-RR BRD4 (Homo sapiens, UniProt O60885)
Test: Kinetic degradation of HiBiT-RR BRD4 CRISPR knock-in in HEK293 cells
Type: cell-based

DC50 or Dmax difference HiBiT-KK vs HiBiT-RR BRD4: no significant DC50 or Dmax difference
Compound: Cc1ncsc1-c1ccc(CNC(=O)[C@@H]2C[C@@H](O)CN2C(=O)[C@@H](NC(=O)COCCOCCOCCNC(=O)C[C@@H]2N=C(c3ccc(Cl)cc3)c3c(sc(C)c3C)-n3c(C)nnc32)C(C)(C)C)cc1 [MZ1]
